Some test systems named below: CCRF-CEM leukemia; SF-268 CNS; IGROV1 ovarian; OVCAR-3 ovarian; NCI-H226 lung; HCC-2998 colon; NCI-H23 lung; MALME-3M melanoma; SF-295 CNS; CAKI-1 renal; LOX IMVI melanoma; OVCAR-8 ovarian; COLO 205 colon; A549 NSCLC; HOP-92 NSCLC; OVCAR-5 ovarian; U251 CNS; SF-539 CNS; HT29 colon; SN12C renal.
What all share (test): NCI tumour cell line growth inhibition, 48 h

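These data come from cells grown in 96-well plates and exposed to compound for 48 hours at five concentrations. TGI denotes the concentration required for complete inhibition of growth.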

For `CC(=O)OC[C@H]1[C@@H]2C(CC[C@]13CO3)OC(=O)CC(C)[C@]2(C)CCc1ccoc1` (some centres not stated), the TGI with CCRF-CEM leukemia, in the assay with SF-268 CNS, in the assay on IGROV1 ovarian, in the assay on OVCAR-3 ovarian, in the assay with NCI-H226 lung and in the assay with HCC-2998 colon was over 100 µM throughout. Besides, the TGI in the assay with NCI-H23 lung, in the assay with MALME-3M melanoma, in the assay on SF-295 CNS, with CAKI-1 renal, in the assay on LOX IMVI melanoma and in the assay with OVCAR-8 ovarian was over 100 µM in each case. The TGI in the assay with COLO 205 colon, in the assay on A549 NSCLC, in the assay with HOP-92 NSCLC, with OVCAR-5 ovarian, in the assay on U251 CNS and in the assay on SF-539 CNS was over 100 µM throughout. Further, the TGI in the assay with HT29 colon and in the assay on SN12C renal was over 100 µM in each case.
As for `COc1ccc2c(c1)CCCc1cn[nH]c1-2`, the TGI in the assay with CCRF-CEM leukemia, in the assay with SF-268 CNS, with IGROV1 ovarian, in the assay on OVCAR-3 ovarian, in the assay on NCI-H226 lung and in the assay on HCC-2998 colon was over 100 µM in each case. Further, the TGI in the assay with NCI-H23 lung, in the assay with MALME-3M melanoma, in the assay with SF-295 CNS, with CAKI-1 renal, in the assay with LOX IMVI melanoma and with OVCAR-8 ovarian was over 100 µM each time. The TGI in the assay on COLO 205 colon, with A549 NSCLC, with HOP-92 NSCLC, in the assay with OVCAR-5 ovarian, with U251 CNS and in the assay with SF-539 CNS was over 100 µM throughout. Besides, the TGI in the assay on HT29 colon and in the assay with SN12C renal was over 100 µM each time.
On to `COc1ccc(-c2c(C#N)c(NC(=S)NC(=O)c3ccccc3)nc3c2CCCC3)cc1OC`, for which the TGI with CCRF-CEM leukemia, with SF-268 CNS, in the assay on IGROV1 ovarian, in the assay on OVCAR-3 ovarian, in the assay with NCI-H23 lung and in the assay with MALME-3M melanoma was over 100 µM each time. The TGI in the assay with SF-295 CNS, in the assay with CAKI-1 renal, in the assay on LOX IMVI melanoma, with OVCAR-8 ovarian, in the assay on COLO 205 colon and with A549 NSCLC was over 100 µM each time. Further, the TGI with OVCAR-5 ovarian, with U251 CNS, in the assay on SF-539 CNS, in the assay on HT29 colon and with SN12C renal was over 100 µM throughout.
For the compound `O=[N+]([O-])c1ccccc1N=Nc1c(O)sc2ccccc12`, the TGI in the assay with CCRF-CEM leukemia, in the assay with SF-268 CNS, in the assay on IGROV1 ovarian, in the assay with OVCAR-3 ovarian, in the assay on NCI-H226 lung and in the assay on HCC-2998 colon was over 100 µM in each case. The TGI in the assay on NCI-H23 lung, in the assay with MALME-3M melanoma, with SF-295 CNS, in the assay with CAKI-1 renal, with LOX IMVI melanoma and in the assay on OVCAR-8 ovarian was over 100 µM throughout. The TGI with COLO 205 colon, in the assay with A549 NSCLC, with HOP-92 NSCLC, in the assay with OVCAR-5 ovarian, with U251 CNS and with SF-539 CNS was over 100 µM each time. In the assay on HT29 colon, the TGI is over 100 µM.
As for `COC(=O)C1(c2ccc(N(C)C)cc2OC)CCCN(C(=O)Oc2ccccc2[N+](=O)[O-])CCc2c1[nH]c1ccccc21` (configuration not stated), the TGI in the assay on SF-268 CNS, in the assay with IGROV1 ovarian, with OVCAR-3 ovarian, with NCI-H226 lung, with HCC-2998 colon and in the assay on NCI-H23 lung was over 100 µM throughout. Moreover, the TGI in the assay on MALME-3M melanoma, with SF-295 CNS, in the assay with CAKI-1 renal, in the assay with LOX IMVI melanoma, in the assay with OVCAR-8 ovarian and in the assay on COLO 205 colon was over 100 µM throughout. In addition, the TGI in the assay on A549 NSCLC, in the assay on HOP-92 NSCLC, with OVCAR-5 ovarian, in the assay with U251 CNS, in the assay on SF-539 CNS and in the assay on HT29 colon was over 100 µM throughout. For the same compound, the TGI in the assay with SN12C renal was over 100 µM.
With `Oc1ccc2ccccc2c1N=Nc1ccc(F)cc1`, the TGI with CCRF-CEM leukemia, in the assay on SF-268 CNS, in the assay with IGROV1 ovarian, in the assay on OVCAR-3 ovarian, in the assay on HCC-2998 colon and in the assay with NCI-H23 lung was over 100 µM in each case. In addition, the TGI in the assay with MALME-3M melanoma, in the assay on SF-295 CNS, in the assay on CAKI-1 renal, in the assay with LOX IMVI melanoma, in the assay with OVCAR-8 ovarian and in the assay on COLO 205 colon was over 100 µM in each case. Besides, the TGI in the assay with A549 NSCLC, with HOP-92 NSCLC, with OVCAR-5 ovarian, in the assay with U251 CNS, with SF-539 CNS and with HT29 colon was over 100 µM in each case. This compound also yielded a TGI with SN12C renal of over 100 µM.
Regarding `CN(CCCNc1ccc2ncn3c4ccccc4c(=O)c1c23)CCCN1C(=O)c2cccc3cc([N+](=O)[O-])cc(c23)C1=O`, the TGI worked out at 0.973 µM in the assay on CCRF-CEM leukemia; 2.28 µM with SF-268 CNS; 1.48 µM in the assay on IGROV1 ovarian; 2.29 µM in the assay on OVCAR-3 ovarian; 1.55 µM with NCI-H226 lung; 0.0916 µM in the assay with HCC-2998 colon. The TGI was determined as 1.5 µM with NCI-H23 lung; 1.42 µM with SF-295 CNS; 2 µM in the assay with CAKI-1 renal; 1.86 µM with OVCAR-8 ovarian; 1.06 µM with COLO 205 colon; 0.126 µM with A549 NSCLC. The TGI is 6.39 µM with HOP-92 NSCLC; 2.35 µM with OVCAR-5 ovarian; 0.133 µM in the assay with U251 CNS; 0.149 µM in the assay with SF-539 CNS; 0.0155 µM in the assay on HT29 colon; 1.78 µM with SN12C renal.
Regarding `CC(C)CCN=c1cc2n(-c3ccc(Cl)cc3)c3ccccc3nc-2cc1Nc1ccc(Cl)cc1`, the TGI in the assay on CCRF-CEM leukemia is over 91 µM; in the assay with SF-268 CNS, over 100 µM; in the assay on IGROV1 ovarian it was 17.9 µM; with OVCAR-3 ovarian, 6.61 µM; in the assay with NCI-H226 lung it was 20.7 µM; with HCC-2998 colon it was 18.1 µM. In addition, the TGI is 12.1 µM in the assay on NCI-H23 lung; 31 µM in the assay with MALME-3M melanoma; 44.2 µM with SF-295 CNS; over 67.6 µM in the assay on CAKI-1 renal; 8.03 µM in the assay on LOX IMVI melanoma; 33.7 µM in the assay with OVCAR-8 ovarian. Further, the TGI in the assay on COLO 205 colon is 12.9 µM; in the assay on A549 NSCLC, over 56.4 µM; in the assay on HOP-92 NSCLC it was 16.8 µM; in the assay with OVCAR-5 ovarian it was 35.3 µM; with U251 CNS, 26.5 µM; with SF-539 CNS it was 32.1 µM. For the same compound, the TGI with HT29 colon came out at 19.8 µM; in the assay with SN12C renal it was 58.1 µM.
With `CC(C(=O)O)c1cnn(-c2ccccc2)c1-n1cccc1` (configuration not stated), the TGI with CCRF-CEM leukemia, with SF-268 CNS, in the assay with IGROV1 ovarian, in the assay with OVCAR-3 ovarian, in the assay on NCI-H226 lung and in the assay on HCC-2998 colon was over 100 µM throughout. Besides, the TGI in the assay with NCI-H23 lung, with MALME-3M melanoma, with SF-295 CNS, in the assay with CAKI-1 renal, in the assay with LOX IMVI melanoma and in the assay on OVCAR-8 ovarian was over 100 µM each time. In addition, the TGI in the assay with COLO 205 colon, in the assay on A549 NSCLC, in the assay with HOP-92 NSCLC, in the assay on OVCAR-5 ovarian, in the assay with U251 CNS and in the assay with SF-539 CNS was over 100 µM each time. The TGI with HT29 colon and in the assay on SN12C renal was over 100 µM each time.
As for `C=CCNc1ccc(C)cc1`, the TGI with CCRF-CEM leukemia, in the assay with SF-268 CNS, with OVCAR-3 ovarian, with NCI-H226 lung, in the assay on HCC-2998 colon and with NCI-H23 lung was over 100 µM in each case. Further, the TGI in the assay on SF-295 CNS, in the assay on LOX IMVI melanoma, in the assay with OVCAR-8 ovarian, in the assay with COLO 205 colon, with A549 NSCLC and in the assay with HOP-92 NSCLC was over 100 µM in each case. Besides, the TGI in the assay on U251 CNS, in the assay with HT29 colon and in the assay on SN12C renal was over 100 µM in each case.

Values taken from PubChem BioAssay (NCI).
